Blank lines part the entries; values can stand above or below the molecule they belong to.
Assays:
avidin [1] = target: T1, avidin (Gallus gallus, UniProt P02701); assay: Fluorescent binding assay (FBA) with avidin-FITCS; settings: for concentration at which avidin binding reached a maximum: base bound to a substratum of fixed cells, avidin-FITCS
T1 construct: mature chain without signal peptide
Protocol: (§1) Cultures of IMR 32 cells were grown in 96-well plates as described above and allowed to differentiate. Untreated cultures were fixed and permeabilised as above to provide a substrate to which 8-oxodeoxyguanosinewould bind thus permitting FAAs to be performed. Various concentrations of either the normal or the oxidised base were incubated on these plates (100 μl/well) for 1 hour. The ELISA plates were then washed 3 times with PBS before visualising bound base with either avidin-conjugated FITCS (1:200 in PBS for 1 hour) or with a FITCS-conjugated anti-biotin monoclonal antibody (1:80 in PBS for 1 hour). The level of binding was quantified with a fluorescence plate reader (Denley, Billingshurst, U.K.), excitation 485 nm and emission 535 nm.

avidin [2] = target: T1, avidin; assay: Enzyme-linked avidin binding assay, competition experiments; settings: competitor 10 μM, co-incubation, avidin-HRP, paraformaldehyde-fixed DNA
Protocol: Treatment of DNA with methylene blue leads to the oxidation of deoxyguanosine residues to 8-oxodeoxyguanosine. DNA (0.5 mg/ml in water) was incubated in the presence of methylene blue (20 μg/ml final concentration in 0.1 M tris, pH 8.5) in a petri dish on ice shielded from a white light source by 0.5 cm water in an upturned petri dish lid (light source to DNA distance was 3 cm). Irradiation was for 3 hours at which time solid sodium chloride was added to a final concentration of 1 M and the DNA precipitated with ethanol. The DNA was removed and dissolved in de-ionized water. The DNA was re-precipitated and washed twice more to remove any remaining methylene blue.
Avidin-horse radish peroxidase (avidin-HRP) (Sigma) binding to methylene blue-treated DNA was compared to its binding to untreated DNA. Treatment of DNA with methylene blue leads to the generation of oxidised base products including 8-oxodeoxyguanosine. Competition experiments were carried out to define the specificity of binding of avidin to DNA. Damaged and native DNA bind to ELISA plates and in initial experiments, native and methylene blue-treated double-stranded and single-stranded DNA were bound to ELISA plates (Immuno plate MAXISORP (RTM), Nunc) at 50 μg/ml in PBS (50 μl/well). However since it is difficult to quantify the amount of DNA remaining after the various procedures, Millipore MULTISCREEN (RTM)filtration plates were used in this experiment. Native and methylene blue-treated double-stranded and single-stranded DNA ([…] in water) was added to appropriate wells ([…]) of MULTISCREEN-HV 96-well plates. […] Following washing with PBS 3 times, detection of bound peroxidase-labelled avidin was performed using 50 μl/well of o-phenylenediamine (0.5 mg/ml in 0.05 M phosphate-citrate, pH 5.0, and containing 0.03% w/v sodium perborate as a substitute for H2 O2) as substrate; the reaction was stopped after 20 minutes at room temperature using 2M […] (25 μl/well) and the product determined spectrophotometrically at 492 nm. […]

[3] = test system: monoclonal antibody to biotin; assay: Fluorescent binding assay (FBA) with FITCS-conjugated anti-biotin monoclonal antibody; set-up: species or system goat; settings: base bound to a substratum of fixed cells
Protocol: Avidin-FITCS conjugate was from Sigma (A 2050), as was monoclonal, goat anti-biotin-FITCS conjugate antibody (clone number BN-34) (F4024).
as §1

avidin [4] = target: T1, avidin; assay: Inhibition of avidin binding to hydrogen peroxide treated cells; settings: avidin conjugate preincubated with competitor; all at 100 μM (biotin 10 μM)
Protocol: Cells were washed in warm PBS. Cultures were fixed and permeabilised with ice-cold methanol for 15 minutes, rehydrated in PBS before blocking with PBS containing 10% (w/v) normal goat serum (NGS). […] The control, PBS in the absence of competitor, was treated in parallel. […] Fixed cells were incubated with the solutions for 1 hour in the dark at room temperature. The slides were washed three times in PBS before coverslips were mounted on the slides using VECTORSHIELD (RTM) (Vector Laboratories, Peterborough, U.K.), a glycerol-based anti-bleaching mountant.

avidin [5] = target: T1, avidin; assay: Capillary electrophoresis analysis of binding
Protocol: Capillary electrophoresis was performed using a Beckman […].) controlled by accompanying System Gold (RTM) software. All analyses were carried out using an untreated fused silica capillary of 57 cm total length and 75 μm internal diameter. […] Samples were then placed on ice until analysed by CE. The electrophoresis solution was 10 mM sodium tetraborate (pH 9.3) filtered through a 0.45 μm filter. Samples were loaded using positive pressure (nominal 0.5 psi) for 5 seconds at 25° C. The run time was 10 minutes under an applied voltage of 30 kV with a rise time of 0.17 minutes (approx. 10.2 seconds). Detection was by absorbence at 200 nm and comparison with known standards. Concentration of each compound was estimated from peak height.

IMR 32 cells [6] = assay: cells
Protocol: After differentiation, media was carefully aspirated and prewarmed Hanks buffered salt solution (HBSS) added to each well (200 μl) with or without various concentrations of freshly prepared hydrogen peroxide. The cultures were incubated with hydrogen peroxide for 1 hour after which the HBSS was replaced with fresh media (α-MEM with 5% (v/v) HIFCS and 1% (v/v) non-essential amino acids) and allowed to recover for 24 hours under standard incubation conditions before cell death was assessed using the MTT assay and binding of avidin assessed by fluorescence analysis.
Cells were prefixed by the addition of 2% (w/v) paraformaldehyde (in phosphate buffered saline (PBS) at pH 7.4) for 15 mins after washing the cells with PBS. Cells were washed in warm PBS. Cultures were fixed and permeabilised with ice-cold methanol for 15 minutes, rehydrated in PBS before blocking with PBS containing 10% (w/v) normal goat serum (NGS). The blocking solution was washed off with PBS containing 0.2% (w/v) NGS.

IMR 32 cells [7] = assay: MTT assay after UVA exposure; format: cell-based; settings: α-tocopherol pre-incubation, 24 hours post-irradiation
Protocol: (§2) Differentiated cells were exposed to UVA irradiation with or without preincubation with the lipid-phase antioxidant α-tocopherol. The level of UVA irradiation was monitored in each experiment with a radiometer. Antioxidant was added to the existing medium 24 hours prior to irradiation at a final concentration of 200 μM (stock made up immediately prior to use in ethanol). […] Medium was removed prior to irradiation and cells washed in HBSS. The cells were irradiated from above at room temperature. Controls were sham irradiated. The cells were fixed as described below.

IMR 32 cells [8] = assay: UVA exposure with α-tocopherol preincubation, fluorescent assessment of avidin binding; format: cell-based; settings: 200 μM preincubation
Protocol: as §2
Cells were washed in warm PBS. Cultures were fixed and permeabilised with ice-cold methanol for 15 minutes, rehydrated in PBS before blocking with PBS containing 10% (w/v) normal goat serum (NGS). […] DNA damage was visualised with avidin-conjugated fluorescein isothiocyanate (FITCS) (1:200 in PBS for 1 hour) or with a FITCS-conjugated anti-biotin monoclonal antibody (1:80 in PBS for 1 hour) for either fluorescence microscopy or for quantitative assessment with a fluorescence plate reader (Denley, Billingshurst, U.K.).

T1 sequence (P02701 25-152): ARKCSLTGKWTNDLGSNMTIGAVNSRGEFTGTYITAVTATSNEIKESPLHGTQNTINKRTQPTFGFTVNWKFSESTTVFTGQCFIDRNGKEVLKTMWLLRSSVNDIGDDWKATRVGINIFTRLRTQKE

Structure (SMILES): O=C(O)CCCC[C@@H]1SC[C@@H]2NC(=O)N[C@@H]21 [biotin]
recovery of unbound biotin after incubation with avidin (avidin [5]; biotin 100 μM, various concentrations of avidin, theoretical values assume 4 biotin molecules per avidin): very close to the theoretical values expected | inhibition of avidin-FITCS binding to hydrogen peroxide treated cells (avidin [4]): prevented binding

Structure (SMILES): Nc1nc2nc[nH]c2c(=O)[nH]1 [guanine]
inhibition of avidin binding to double-stranded, methylene blue treated DNA (avidin [2]): inhibited binding | inhibition of avidin-FITCS binding to hydrogen peroxide treated cells (avidin [4]): did not

Structure (SMILES): OO [hydrogen peroxide]
hydrogen peroxide concentration at which the level of avidin binding plateaued (IMR 32 cells [6]; 1 hour exposure, 24 hours recovery): 100 nM | minimal effective concentration (IMR 32 cells [6]; Homo sapiens, IMR-32, 1 h, read-out: hydrogen peroxide concentration at which avidin binding was statistically different from control): 0.01 µM

Structure (SMILES): Cc1c(C)c2c(c(C)c1O)CCC(C)(CCCC(C)CCCC(C)CCCC(C)C)O2 (stereo not drawn) [α-tocopherol]
effect on UVA-induced increase in MTT metabolism (IMR 32 cells [7]): prevented | effect on avidin binding to UVA irradiated cells, longer periods of irradiation (IMR 32 cells [8]; 24 hours post-irradiation): not effective in reducing binding | effect on avidin binding to UVA irradiated cells, short periods of irradiation (IMR 32 cells [8]; 24 hours post-irradiation): reduced the level of avidin binding | effect on avidin binding over the range of irradiation times studied (IMR 32 cells [8]; multiple range ANOVA): significantly (p=0.003) reduced the binding of avidin

The remaining lines, values ahead:

theoretical sensitivity of avidin binding (detectable amount) (avidin [1]; assuming 100% binding of 8-oxodeoxyguanosine to the substratum): 10^4 molecules | concentration at which avidin binding reached a maximum (avidin [1]): 10^-15 M | inhibition of avidin binding to double-stranded, methylene blue treated DNA (avidin [2]): greatest inhibition | concentration at which binding of the monoclonal antibody to biotin reached a maximum [3]: 10^-9 M | inhibition of avidin-FITCS binding to hydrogen peroxide treated cells (avidin [4]): inhibited binding
Structure (SMILES): Nc1nc2c([nH]c(=O)n2[C@H]2C[C@H](O)[C@@H](CO)O2)c(=O)[nH]1 [8-oxodeoxyguanosine]

rate of binding to avidin (avidin [5]; purely chemical system, minimal preincubation): extremely rapid
Structure (SMILES): Nc1nc2[nH]c(=O)[nH]c2c(=O)[nH]1 [8-oxoguanine]

concentration at which avidin binding reached a maximum (avidin [1]): 10^-6 M | concentration at which binding of the monoclonal antibody to biotin reached a maximum [3]: 10^-9 M
Structure (SMILES): Nc1nc2c(ncn2[C@H]2C[C@H](O)[C@@H](CO)O2)c(=O)[nH]1 [deoxyguanosine]

inhibition of avidin binding to double-stranded, methylene blue treated DNA (avidin [2]): inhibited binding
Structure (SMILES): Nc1nc2c(ncn2[C@@H]2O[C@H](CO)[C@@H](O)[C@H]2O)c(=O)[nH]1 [guanosine]
